Where “and” joins values, the source holds several entries; their conditions need not be identical. Identical values can stand only once.
Biological target: T1, E. coli DNA gyrase (Escherichia coli, UniProt P0AES4+P0AES6)
T1 construct: made in house; host or cells: strains overexpressing each subunit individually
Assay: In Vitro DNA Gyrase Assay (supercoiling of relaxed pBR322, EtBr-stained agarose gel)
Format: biochemical
Conditions: Gyrase IC50 (μM), E. coli DNA gyrase holoenzyme A2B2; substrate relaxed pBR322; relaxed vs. supercoiled DNA on 0.8% agarose gel
Text: DNA gyrase is a bacterial topoisomerase that introduces negative supercoils into DNA. The DNA gyrase assay measures the degree of enzymatic activity by quantitating relative amounts of relaxed vs. supercoiled DNA on an EtBr-stained 0.8% agarose gel. The substrate is relaxed pBR322. The enzyme is E. coli DNA gyrase which is purified from strains overexpressing each of the subunits individually (there are two: A and B and the holoenzyme consists of the heterodimer A2B2). See for example, Hallett et al. Cloning of the DNA gyrase genes under tac promoter control: overproduction of the gyrase A and B proteins. Gene 93: 139-142 (1990); Simon et al. Biochemical complementation studies in vitro of gyrase subunits from different species. FEBS Lett 373:88-92 (1995); and O'Dea et al. Mutations in the B subunit of Escherichia coli DNA gyrase that affect ATP-dependent reactions. J. Biol Chem 1996 271:9723-9 (1996).
In the below chart, racemic mixtures are denoted with (±)- and enantiomerically enriched samples are denoted by (−)- or (+)-.

T1 sequence (P0AES4 whole entry, one chain of several): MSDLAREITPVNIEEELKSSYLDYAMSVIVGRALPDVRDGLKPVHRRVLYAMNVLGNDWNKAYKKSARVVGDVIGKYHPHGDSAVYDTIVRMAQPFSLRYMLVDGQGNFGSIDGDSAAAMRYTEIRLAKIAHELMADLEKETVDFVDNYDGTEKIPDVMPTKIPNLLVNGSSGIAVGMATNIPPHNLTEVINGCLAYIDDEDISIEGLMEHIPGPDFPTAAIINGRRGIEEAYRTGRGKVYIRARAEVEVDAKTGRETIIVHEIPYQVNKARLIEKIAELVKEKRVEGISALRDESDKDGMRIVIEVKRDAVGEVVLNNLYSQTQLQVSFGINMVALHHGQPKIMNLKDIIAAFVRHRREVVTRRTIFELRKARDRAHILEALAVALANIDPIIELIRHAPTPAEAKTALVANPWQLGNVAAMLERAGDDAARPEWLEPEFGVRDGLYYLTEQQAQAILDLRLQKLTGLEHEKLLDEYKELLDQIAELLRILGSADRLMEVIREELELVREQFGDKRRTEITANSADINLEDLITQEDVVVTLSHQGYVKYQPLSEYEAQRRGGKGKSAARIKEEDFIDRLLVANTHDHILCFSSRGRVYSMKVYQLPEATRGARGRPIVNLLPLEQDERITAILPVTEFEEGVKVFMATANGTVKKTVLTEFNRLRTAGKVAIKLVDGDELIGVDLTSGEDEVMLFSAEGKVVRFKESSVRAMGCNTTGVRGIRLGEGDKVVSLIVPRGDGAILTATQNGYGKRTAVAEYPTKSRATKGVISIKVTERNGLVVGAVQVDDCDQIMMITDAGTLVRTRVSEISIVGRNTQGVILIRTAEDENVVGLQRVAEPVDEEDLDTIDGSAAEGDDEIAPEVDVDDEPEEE

Row | Structure (SMILES) | IC50
1 | COC(=O)c1ccc2c(c1)CC1(C(=O)NC(=O)NC1=O)[C@H]1[C@H](C)O[C@H](C)CN21 (relative stereo) [Example 43, rel-Methyl (2R,4S,4aS)1,1′-2,3′,4,4a,6′-Octahydro-2,4-dimethyl-2′,4′,6′-trioxospiro[[1,4]oxazino[4,3-a]quinoline-5(6H),5′(2′H)-pyrimidine]-8-carboxylate] | 24 µM
2 | C[C@@H]1CN2c3ccc(C#N)cc3CC3(C(=O)NC(=O)NC3=O)[C@H]2[C@H](C)O1 [Example 6, 1,1′,2,3′4,4′,4a, 6′-Octrahydro-2,4′,6′-trioxospiro[[1,4]oxazino[4,3-a]quinoline-5(6H), 5′(2′H)-pyrimidine]-8-carbonitrile] | 13.8 µM
3 | C[C@@H]1CN2c3ccccc3CC3(C(=O)NC(=O)NC3=O)[C@H]2[C@H](C)O1 (racemic) [Example 2, 1,2,4,4a-Tetrahydro-cis-2,4-dimethylspiro[[1,4]oxazino[4,3-a]quinoline-5(6H), 5′(2′H)-pyrimidine]-2′,4′,6′(1′H,3′H)-trione] | 45.6 µM
4 | CC(=O)c1ccc2c(c1)CC1(C(=O)NC(=O)NC1=O)[C@H]1[C@H](C)O[C@H](C)CN21 (racemic) [Example 18, 8-Acetyl-1,2,4,4a-tetrahydro-2,4-dimethylspiro[[1,4]oxazino[4,3-a]quinoline-5(6H),5′(2H)-pyrimidine)-2′,4′,6′(1′H,3′H)-trione] | 8.4 µM
5 | C[C@@H]1CN2c3ccc([N+](=O)[O-])cc3CC3(C(=O)NC(=O)NC3=O)[C@H]2[C@H](C)O1 (stereo in doubt) [Example 1] | 11.8 µM and 6.1 µM
6 | C[C@@H]1CN2c3ccc(F)cc3CC3(C(=O)NC(=O)NC3=O)[C@H]2[C@H](C)O1 (racemic) [Example 4, 8-Fluoro-1,2,4,4a-tetrahydro-cis-2,4-dimethylspiro[[1,4]oxazino[4,3-a]quinoline-5(6H), 5′(2′H)-pyrimidine]-2′,4′,6′(1′H,3′H)-trione] | 70.2 µM
7 | C[C@@H]1OCCN2c3ccc([N+](=O)[O-])cc3CC3(C(=O)NC(=O)NC3=O)[C@@H]12 (stereo in doubt) [Example 25] | 18.2 µM and 32 µM
8 | C[C@@H]1CN2c3ccc([N+](=O)[O-])cc3CC3(C(=O)NC(=O)NC3=O)[C@@H]2[C@@H](C)O1 (racemic) [Example 1] | 19 µM
